Measured values reported in US20080031866A1, “METHOD FOR MODULATING THE PHARMACOKINETICS AND METABOLISM OF A THERAPEUTIC AGENT” (priority 2006, published 2008).

Key:
[1] = Intracolonic dosing with and without β-glucuronidase, catheterized rat; format: in vivo; conditions: 10 mg/kg, rats N=6; for AUC / Cmax / concentration at 0 h / concentration at 0.25 h / concentration at 0.5 h / concentration at 1 h / concentration at 2 h / concentration at 3 h / concentration at 4 h / concentration at 5 h / concentration at 6 h: male, Sprague Dawley, rat, plasma; for AUC: read-out: AUC average ± standard deviation 0 to 6 hours; for Cmax: read-out: Cmax average ± standard deviation; for concentration at 0 h / concentration at 0.25 h / concentration at 0.5 h / concentration at 1 h / concentration at 2 h / concentration at 3 h / concentration at 4 h / concentration at 5 h / concentration at 6 h: other: intracolonic
Protocol: (§1) A catheterized rat model was used in which the agent alone or agent and β-glucuronidase enzyme was administered intraduodenally or intracolonically. The intraduodenal and intracolonic dosing was intended to prevent the potential for loss of enzymatic activity when orally dosing the β-glucuronidase (e.g. by degradation in the stomach). […]
(§2) For the oral gavage dosing, Compound 1 was prepared in neat PEG-400. For the intraduodenal and intracolonic dosing solutions, Compound 1 was added to neat Tween 80, the mixture was sonicated for thirty minutes at 45° C. until Compound 1 was completely dissolved and then deionized (DI) water was added to form a solution consisting of 20% Tween 80 and 80% DI water by weight.
(§3) For the oral enzyme solutions, β-glucuronidase was added to the final formulation at a concentration of 57,600 units/ml.
(§4) For the intraduodenal and intracolonic dosing, male Sprague Dawley rats weighing 300-400 g were purchased from Charles River Labs. All rat experiments were conducted under approved animal protocols. The rats were catheterized at Charles River Labs and had one or more of the following chronic catheters for dosing and sampling: jugular/carotid, duodenal, and colonic. Rats were limited to only one GI catheter and one vascular catheter. For IV dosing, rats were purchased with jugular and carotid catheters for dosing in the jugular catheter and blood sampling through the carotid catheter. For intraduodenal/intracolonic dosing, rats had one of the GI catheters for dosing and a carotid catheter for blood sampling.
(§5) The surgeries were done two weeks prior to start of testing. Rats were fed 4 hours post dose administration. All rats were dosed without anesthesia and sacrificed at the end of the study.
(§6) A quantitative method for determining the amount of (6,7-dimethoxy-2,4-dihydro-indeno[1,2-c]pyrazol-3-yl)-(3-fluoro-phenyl)-amine Compound 1 and its major metabolites, glucuronide A (Cpd 1-GluA) and glucuronide B (Cpd 1-GluB) (see Scheme A) in rat plasma was developed using phenacetin as an internal standard. [drawing 1]
(§7) The two glucuronide conjugates were prepared and purified to permit accurate quantification of the levels of intact parent Compound 1 versus Cpd 1-GluA and Cpd 1-GluB. Each standard curve for Compound 1, Cpd 1-GluA, and Cpd 1-GluB generated from rat plasma included ten concentration levels. […] The quantitative procedure for each sample included: sample preparation, HPLC separation and mass spectrometry detection.
(§8) The rat plasma was prepared using protein precipitation techniques. Reference standards and quality control samples in rat plasma for Compound 1 were transferred to a 96 deep-well plate. The precipitation solution contained 100 ng/ml of internal standard in acetonitrile. 300 μl of precipitation solution were added to 100 μl of each standard, quality control and plasma sample. Samples were vortexed for 10 mins, then centrifuged at 4500 RPM for 10 mins. 10 μl of each sample were injected for LC/MS/MS analysis.
(§9) The HPLC column chosen for the bioanalysis was purchased from Thermo Electron (Hypersil BetaBasic C18, 5 cm×2.1 mm). The eluting solvents were composed of Solvent A: 0.1% formic acid in H2O and Solvent B: 0.1% formic acid in acetonitrile. A step gradient was used and flow rate was 300 μl/min. The total run time was 3.2 mins. Solvent B was increased from 35% at 0 min to 75% at 2.1 mins and decreased back to 35% at 2.2 mins. The retention times for Compound 1, phenacetin, Cpd 1-GluA and Cpd 1-GluB were 1.1 min, 0.9 min, 1.3 min, and 1.6 min, respectively.
(§10) API3000 with a Turbo Ionspray interface from Applied Biosystems was used for the detection of Compound 1, the internal standard and major metabolites. Electrospray ionization was performed in the positive ion mode heated nebulizer with a temperature of 300° C. LC/MS/MS chromatograms were acquired in MRM (multiple reaction mode). […]

[2] = Intraduodenal dosing with and without β-glucuronidase, catheterized rat; format: in vivo; conditions: male, Sprague Dawley, rat, plasma, 10 mg/kg, rats N=6; for AUC: read-out: AUC average ± standard deviation 0 to 6 hours; for Cmax: read-out: Cmax average ± standard deviation; for concentration at 0 h / concentration at 0.25 h / concentration at 0.5 h / concentration at 1 h / concentration at 2 h / concentration at 3 h / concentration at 4 h / concentration at 5 h / concentration at 6 h: other: intraduodenal
Protocol: as §1, §2, §3, §4, §5, §6, §7, §8, §9, §10

[3] = Compound 1 10 mg/kg intracolonic with β-glucuronidase
[4] = Compound 1 10 mg/kg intracolonic without enzyme
[5] = Compound 1 10 mg/kg intraduodenal with β-glucuronidase
[6] = Compound 1 10 mg/kg intraduodenal without enzyme

COc1cc2c(cc1OC)-c1nn(C3OC(C(=O)O)C(O)C(O)C3O)c(Nc3cccc(F)c3)c1C2 (stereo in doubt) [Cpd 1-GluB]
AUC [1, 3]: 176 ± 123 ng·h/mL | Cmax [1, 3]: 79.4 ± 47.3 ng/mL | AUC [1, 4]: 499 ± 137 ng·h/mL | Cmax [1, 4]: 140 ± 56.9 ng/mL | concentration at 0 h [1, 3]: 0 ng/mL | concentration at 0.25 h [1, 3]: 508 ± 342 ng/mL | concentration at 0.5 h [1, 3]: 503 ± 363 ng/mL | concentration at 1 h [1, 3]: 676 ± 586 ng/mL | concentration at 2 h [1, 3]: 275 ± 260 ng/mL | concentration at 3 h [1, 3]: 271 ± 181 ng/mL | concentration at 4 h [1, 3]: 194 ± 165 ng/mL | concentration at 5 h [1, 3]: 146 ± 84.4 ng/mL | concentration at 6 h [1, 3]: 119 ± 108 ng/mL | concentration at 0 h [1, 4]: 0 ng/mL | concentration at 0.25 h [1, 4]: 70.2 ± 29.3 ng/mL | concentration at 0.5 h [1, 4]: 72.4 ± 28.2 ng/mL | concentration at 1 h [1, 4]: 51.2 ± 24.9 ng/mL | concentration at 2 h [1, 4]: 13.5 ± 5.5 ng/mL | concentration at 3 h [1, 4]: 7.1 ± 5 ng/mL | concentration at 4 h [1, 4]: 9.6 ± 6.7 ng/mL | concentration at 5 h [1, 4]: 9.2 ± 4.1 ng/mL | concentration at 6 h [1, 4]: 10.4 ± 4 ng/mL | AUC average ± standard deviation 0 to 6 hours [1, 3]: 175.9 ± 123.1 ng·h/mL | AUC average ± standard deviation 0 to 6 hours [1, 4]: 498.7 ± 137.2 ng·h/mL | AUC [2, 5]: 1770 ng·h/mL | Cmax [2, 5]: 755 ± 509 ng/mL | AUC [2, 6]: 128 ± 55.3 ng·h/mL | Cmax [2, 6]: 75.7 ± 27.4 ng/mL | concentration at 0 h [2, 5]: 0 ng/mL | concentration at 0.25 h [2, 5]: 508 ± 342 ng/mL | concentration at 0.5 h [2, 5]: 503 ± 363 ng/mL | concentration at 1 h [2, 5]: 676 ± 586 ng/mL | concentration at 2 h [2, 5]: 275 ± 260 ng/mL | concentration at 3 h [2, 5]: 271 ± 181 ng/mL | concentration at 4 h [2, 5]: 194 ± 165 ng/mL | concentration at 5 h [2, 5]: 146 ± 84.4 ng/mL | concentration at 6 h [2, 5]: 119 ± 108 ng/mL | concentration at 0 h [2, 6]: 0 ng/mL | concentration at 0.25 h [2, 6]: 70.2 ± 29.3 ng/mL | concentration at 0.5 h [2, 6]: 72.4 ± 28.2 ng/mL | concentration at 1 h [2, 6]: 51.2 ± 24.9 ng/mL | concentration at 2 h [2, 6]: 13.5 ± 5.5 ng/mL | concentration at 3 h [2, 6]: 7.1 ± 5 ng/mL | concentration at 4 h [2, 6]: 9.6 ± 6.7 ng/mL | concentration at 5 h [2, 6]: 9.2 ± 4.1 ng/mL | concentration at 6 h [2, 6]: 10.4 ± 4 ng/mL
